Results: US7786134B2, “Lipophilic anticancer drug compounds, compositions and related methods” (Sonus Pharmaceuticals, Inc., priority 2005, dated 2010)
Like-named read-outs stand apart in the source and are kept apart here.

What was measured:
[1] = test system: SKOV-3 (ovarian); assay: In vitro cytotoxicity (GI50), Sulforhodamine B staining, SKOV-3; format: cell-based; details: SKOV-3 cells, 48 hours contact, read-out: Concentration that produce 50% cell growth inhibition (GI50) SKOV-3 (OVARIAN)
Description: (§1) The study was performed using a solution of the lipophilic anticancer drug compounds in DMSO (1 mM) diluted in the corresponding cell media. The cells were in contact with varying concentrations of the test article for a period of 48 hours. At the end of 48 hours, staining with Sulforhodamine B was performed to determine the number of viable cells and calculate the degree of cellular growth inhibition as compared to a control group.

[2] = test system: HCT-15 (colorectal); assay: In vitro cytotoxicity (GI50), Sulforhodamine B staining, HCT-15; format: cell-based; details: HCT-15 cells, 48 hours contact, read-out: Concentration that produce 50% cell growth inhibition (GI50) HCT-15 (COLON)
Description: as §1

[3] = test system: H460 (non-small cell lung); assay: In vitro cytotoxicity (GI50), Sulforhodamine B staining, H460; format: cell-based; details: H460 cells, 48 hours contact, read-out: Concentration that produce 50% cell growth inhibition (GI50) H460 (NSCLC)
Description: as §1

[4] = test system: HCT-116 (COLON); assay: In vitro cytotoxicity (GI50), Sulforhodamine B staining, HCT-116; format: cell-based; details: HCT-116 cells, 48 hours contact, read-out: Concentration that produce 50% cell growth inhibition (GI50) HCT-116 (COLON)
Description: as §1

[5] = test system: H460 (non-small cell lung); details: H460 cells, National Cancer Institute (NCI) GI50 values; read-out: Concentration that produce 50% cell growth inhibition (GI50) H460 (NSCLC); cited from earlier work
[6] = test system: HCT-116 (COLON); details: HCT-116 cells, National Cancer Institute (NCI) GI50 values; read-out: Concentration that produce 50% cell growth inhibition (GI50) HCT-116 (COLON); cited from earlier work
[7] = test system: HCT-15 (colorectal); details: HCT-15 cells, National Cancer Institute (NCI) GI50 values; read-out: Concentration that produce 50% cell growth inhibition (GI50) HCT-15 (COLON); cited from earlier work
[8] = test system: SKOV-3 (ovarian); details: SKOV-3 cells, National Cancer Institute (NCI) GI50 values; read-out: Concentration that produce 50% cell growth inhibition (GI50) SKOV-3 (OVARIAN); cited from earlier work

Row | Compound | GI50 [1] | GI50 [2] | GI50 [3] | GI50 [4] | GI50 [5] | GI50 [6] | GI50 [7] | GI50 [8]
1 | 10-(n-butyl carbonoyloxy)-7-ethylcamptothecin | 0.275 nM | 120 nM | 2.95 nM | 0.58 nM | – | – | – | –
2 | CC[C@@]1(O)C(=O)OCc2c1cc1n(c2=O)Cc2cc3cc(O)ccc3nc2-1 [10-hydroxycamptothecin] | – | – | – | – | 11 nM | 27 nM | 356 nM | –
3 | CCc1c2c(nc3ccc(OCc4ccccc4)cc13)-c1cc3c(c(=O)n1C2)COC(=O)[C@]3(O)CC [10-benzyloxy-7-ethylcamptothecin] | 15 nM | 5.66 nM | 0.32 nM | 4.52 nM | – | – | – | –
4 | CCc1c2c(nc3ccc(OC(=O)CCC(=O)OCc4ccccc4)cc13)-c1cc3c(c(=O)n1C2)COC(=O)C3(O)CC (centres unmarked) [10-(benzyl succinate)-7-ethylcamptothecin] | 1.29 nM | 50.1 nM | 0.372 nM | 10.7 nM | – | – | – | –
5 | CCC1(OC(=O)CCC(=O)OCc2ccccc2)C(=O)OCc2c1cc1n(c2=O)Cc2cc3ccccc3nc2-1 (centres unmarked) [20-(benzyl succinate)camptothecin] | 562 nM | 1300 nM | 380 nM | 630 nM | – | – | – | –
6 | CCCCCCCCOC(=O)CCC(=O)Oc1ccc2nc3c(c(CC)c2c1)Cn1c-3cc2c(c1=O)COC(=O)C2(O)CC (centres unmarked) [10-(1-octyl succinate)-7-ethylcamptothecin] | 3.46 nM | 661 nM | 2460 nM | 9.75 nM | – | – | – | –
7 | CCc1c2c(nc3ccc(OC(=O)CC4(CC(=O)OCc5ccccc5)CCCC4)cc13)-c1cc3c(c(=O)n1C2)COC(=O)[C@]3(O)CC [10-(benzyl 3,3-tetramethyleneglutarate)-7-ethylcamptothecin] | 2.95 nM | 85.1 nM | 8.91 nM | 3.49 nM | – | – | – | –
8 | 10-(N-n-butyl carbamate)-7-ethylcamptothecin | 0.398 nM | 44.7 nM | 1.2 nM | 1.1 nM | – | – | – | –
9 | CCc1c2c(nc3ccc(OC(=O)CCC(=O)OCc4c(C)cc(C)cc4C)cc13)-c1cc3c(c(=O)n1C2)COC(=O)C3(O)CC (centres unmarked) [10-(2,4,6-trimethylbenzyl succinate)-7-ethylcamptothecin] | 3.67 nM | 31.6 nM | 5.12 nM | 3.54 nM | – | – | – | –
10 | CCc1c2c(nc3ccc(OC(=O)CCC(=O)OCc4ccc(C)cc4)cc13)-c1cc3c(c(=O)n1C2)COC(=O)C3(O)CC (centres unmarked) [10-(4-methylbenzyl succinate)-7-ethylcamptothecin] | 6.16 nM | 75.4 nM | 5.37 nM | 2.29 nM | – | – | – | –
11 | CCc1c2c(nc3ccc(OC(=O)NC(C)(C)C)cc13)-c1cc3c(c(=O)n1C2)COC(=O)C3(O)CC (centres unmarked) [10-(N-t-butyl carbamate)-7-ethylcamptothecin] | 1.29 nM | 158 nM | 5.75 nM | 15.1 nM | – | – | – | –
12 | CCCCCCCCOC(=O)CCC(=O)OC1(CC)C(=O)OCc2c1cc1n(c2=O)Cc2cc3ccccc3nc2-1 (centres unmarked) [20-(1-octyl succinate)camptothecin] | 2420 nM | 354 nM | 165 nM | 766 nM | – | – | – | –
13 | CCCCOc1ccc(C(=O)Oc2ccc3nc4c(c(CC)c3c2)Cn2c-4cc3c(c2=O)COC(=O)C3(O)CC)cc1 (centres unmarked) [10-(4-butoxybenzoyloxy)-7-ethylcamptothecin] | 5.5 nM | 141 nM | 28.2 nM | 5.62 nM | – | – | – | –
14 | CC[C@@]1(O)C(=O)OCc2c1cc1n(c2=O)Cc2cc3ccccc3nc2-1 [Camptothecin] | – | – | – | – | 16 nM | 40 nM | 160 nM | 25 nM
15 | CCc1c2c(nc3ccc(O)cc13)-c1cc3c(c(=O)n1C2)COC(=O)[C@]3(O)CC [7-ethyl-10hydroxycamptothecin, 7-ethyl-10-hydroxycamptothecin] | – | – | – | – | 1.4 nM | 21 nM | 7.9 nM | 1 nM
16 | CCc1c2c(nc3ccc(OC(=O)N4CCC(N5CCCCC5)CC4)cc13)-c1cc3c(c(=O)n1C2)COC(=O)[C@]3(O)CC [Irrinotecan, irinotecan] | – | – | – | – | 5100 nM | 7900 nM | – | –
17 | CCc1c2c(nc3ccc(OC(=O)CCC(=O)OCc4c(C)c(C)c(C)c(C)c4C)cc13)-c1cc3c(c(=O)n1C2)COC(=O)C3(O)CC (centres unmarked) [10-(2,3,4,5,6-pentamethylbenzyl succinate)-7-ethylcamptothecin] | 2.13 nM | 32.4 nM | 3.82 nM | 3.09 nM | – | – | – | –
18 | CC[C@@]1(O)C(=O)OCc2c1cc1n(c2=O)Cc2cc3c(CN(C)C)c(O)ccc3nc2-1 [Topotecan, topotecan] | – | – | – | – | 19.9 nM | 39.8 nM | 501 nM | –
